Source: ChEMBL document CHEMBL1134882, “Preparation of chiral 4-benzyloxymethyldihydrofuran-2-one using lipase-catalyzed kinetic resolution: synthesis of (-)-virginiae butanolide C (VB C)” (Bioorg Med Chem Lett, 2002)
Values joined by “and” are separate entries in the source; they are usually repeats but may differ in a detail not shown here. Equal values may be shown once.

Key:
Burkholderia cepacia [1] = assay: Kinetic resolution by Lipase PS from Pseudomonas cepacia, catalyzed acylation by using Isopropenyl acetate
Burkholderia cepacia [2] = assay: Kinetic resolution by Lipase PS from Pseudomonas cepacia, catalyzed acylation by using Phenyl acetate
Burkholderia cepacia [3] = assay: Kinetic resolution by Lipase PS from Pseudomonas cepacia, catalyzed acylation by using Succinic anhydride
Burkholderia cepacia [4] = assay: Kinetic resolution by Lipase PS from Pseudomonas cepacia, catalyzed acylation by using Vinyl acetate

CCN(CC)C(=O)C[C@H](CO)COCc1ccccc1
TIME (Burkholderia cepacia [1]): 9 h
TIME (Burkholderia cepacia [2]): 3 h and 2 h
TIME (Burkholderia cepacia [3]): 4 h
TIME (Burkholderia cepacia [4]): 2 h

O=C(C[C@@H](CO)COCc1ccccc1)NCc1ccccc1
TIME (Burkholderia cepacia [2]): 10 h

CNC(=O)C[C@@H](CO)COCc1ccccc1
TIME (Burkholderia cepacia [2]): 12 h

CN(C)C(=O)C[C@H](CO)COCc1ccccc1
TIME (Burkholderia cepacia [2]): 2 h
TIME (Burkholderia cepacia [3]): 8 h

CCNC(=O)C[C@@H](CO)COCc1ccccc1
TIME (Burkholderia cepacia [2]): 1 h
TIME (Burkholderia cepacia [3]): 5 h
